Test results taken from patent US10307426B2, “Therapeutic compounds and compositions, and methods of use thereof” (Genentech, Inc., priority 2018, dated 2019).
Like-named read-outs stand apart in the source and are kept apart here.

Tests used:
[1] = target: isolated recombinant JAK2 kinase domain (Homo sapiens (Human), UniProt O60674); assay: JAK2 enzyme assay (Caliper LabChip, peptide phosphorylation, Ki); type: biochemical; conditions: 0.2 nM JAK2, ATP 25 μM, Morrison tight binding model
Protocol: (§1) The activity of the isolated recombinant JAK1 and JAK2 kinase domain was measured by monitoring phosphorylation of a peptide derived from JAK3 (Val-Ala-Leu-Val-Asp-Gly-Tyr-Phe-Arg-Leu-Thr-Thr, fluorescently labeled on the N-terminus with 5-carboxyfluorescein) using the Caliper LabChip® technology (Caliper Life Sciences, Hopkinton, Mass.). […] Reactions were incubated at 22° C. in 384-well polypropylene microtiter plates for 30 minutes and then stopped by addition of 25 μL of an EDTA containing solution (100 mM HEPES buffer (pH 7.2), 0.015% Brij-35, 150 mM EDTA), resulting in a final EDTA concentration of 50 mM. After termination of the kinase reaction, the proportion of phosphorylated product was determined as a fraction of total peptide substrate using the Caliper LabChip® 3000 according to the manufacturer's specifications. Ki values were then determined using the Morrison tight binding model (Morrison, J. F., Biochim. Biophys. Acta. 185:269-296 (1969); William, J. W. and Morrison, J. F., Meth. Enzymol., 63:437-467 (1979)) modified for ATP-competitive inhibition [Ki=Ki,app/(1+[ATP]/Km,app)].

[2] = tested on: JAK1-dependent STAT6 phosphorylation downstream of IL-13 stimulation in BEAS-2B human bronchial epithelial cells; assay: JAK1 pathway assay in cell lines: IL-13 stimulated STAT6 phosphorylation in BEAS-2B cells (MSD); type: cell-based; conditions: 1 hr compound incubation, IL-13 stimulation 15 min, read-out: IL-13 p-STAT6 BEAS-2B IC50
Protocol: Inhibitor potency (EC50) was determined in cell-based assays designed to measure JAK1 dependent STAT phosphorylation. As noted above, inhibition of IL-4, IL-13, and IL-9 signaling by blocking the Jak/Stat signaling pathway can alleviate asthmatic symptoms in pre-clinical lung inflammation models (Mathew et al., 2001, J Exp Med 193(9): 1087-1096; Kudlacz et. al., 2008, Eur J. Pharmacol 582(1-3): 154-161).
In one assay approach, TF-1 human erythroleukemia cells obtained from the American Type Culture Collection (ATCC; Manassas, Va.) were used to measure JAK1-dependent STAT6 phosphorylation downstream of IL-13 stimulation. Prior to use in the assays, TF-1 cells were starved of GM-CSF overnight in OptiMEM medium (Life Technologies, Grand Island, N.Y.) supplemented with 0.5% charcoal/dextran stripped fetal bovine serum (FBS), 0.1 mM non-essential amino acids (NEAA), and 1 mM sodium pyruvate. The assays were run in 384-well plates in serum-free OptiMEM medium using 300,000 cells per well. In a second assay approach, BEAS-2B human bronchial epithelial cells obtained from ATCC were plated at 100,000 cells per well of a 96-well plate one day prior to the experiment. The BEAS-2B assay was run in complete growth medium (bronchial epithelial basal medium plus bulletkit; Lonza; Basel, Switzerland).
Test compounds were serially diluted 1:2 in DMSO and then diluted 1:50 in medium just before use. Diluted compounds were added to the cells, for a final DMSO concentration of 0.2%, and incubated for 30 min (for the TF-1 assay) or 1 hr (for the BEAS-2B assay) at 37° C. Then, cells were stimulated with human recombinant cytokine at their respective EC90 concentrations, as previously determined for each individual lot. Cells were stimulated with IL-13 (R&D Systems, Minneapolis, Minn.) for 15 min at 37° C. The TF-1 cell reactions were stopped by the direct addition of 10× lysis buffer (Cell Signaling Technologies, Danvers, Mass.), whereas the BEAS-2B cell incubations were halted by the removal of medium and addition of 1× lysis buffer. The resultant samples were frozen in the plates at −80° C. Compound mediated inhibition of STAT6 phosphorylation was measured in the cell lysates using MesoScale Discovery (MSD) technology (Gaithersburg, Md.). EC50 values were determined as the concentration of compound required for 50% inhibition of STAT phosphorylation relative to that measured for the DMSO control.

[3] = target: isolated recombinant JAK1 kinase domain (Homo sapiens (Human), UniProt P23458); assay: JAK1 enzyme assay (Caliper LabChip, peptide phosphorylation, Ki); type: biochemical; conditions: 1.5 nM JAK1, ATP 25 μM, Morrison tight binding model
Protocol: as §1

Sequence of isolated recombinant JAK2 kinase domain (O60674 849-1124): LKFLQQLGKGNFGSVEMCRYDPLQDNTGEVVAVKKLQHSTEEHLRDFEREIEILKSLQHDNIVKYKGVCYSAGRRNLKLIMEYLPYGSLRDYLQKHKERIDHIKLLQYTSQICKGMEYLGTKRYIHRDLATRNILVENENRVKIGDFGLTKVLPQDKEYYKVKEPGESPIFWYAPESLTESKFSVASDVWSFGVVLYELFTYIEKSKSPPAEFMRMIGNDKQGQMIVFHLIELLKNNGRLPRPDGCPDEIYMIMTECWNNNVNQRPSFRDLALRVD
Sequence of isolated recombinant JAK1 kinase domain (P23458 875-1153): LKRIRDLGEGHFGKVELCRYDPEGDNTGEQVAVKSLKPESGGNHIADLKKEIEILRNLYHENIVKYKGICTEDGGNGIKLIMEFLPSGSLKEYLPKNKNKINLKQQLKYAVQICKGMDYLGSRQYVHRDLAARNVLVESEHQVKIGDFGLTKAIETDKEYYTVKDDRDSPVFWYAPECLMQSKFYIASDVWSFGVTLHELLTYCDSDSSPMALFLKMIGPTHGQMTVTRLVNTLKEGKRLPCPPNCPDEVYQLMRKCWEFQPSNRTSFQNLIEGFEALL

Ki [1] [nM]	Ki [3] [nM]	SMILES	IC50 [2] [nM]	IC50 ([2]; Homo sapiens, BEAS-2B) [nM]
3.26	5.84	CN(C)C(=O)Cn1cc(NC(=O)c2cnn3cccnc23)c(-c2cc(C(F)CF)ccc2OC(F)F)n1 (single isomer, unassigned) [Example 4]	83.8	
0.38	0.17	CN(C)C(=O)Cn1cc(NC(=O)c2cnn3cccnc23)c(-c2cc(C(F)CF)ccc2OC(F)F)n1 (single isomer, unassigned) [Example 5]	6.7	
0.83	0.41	CC(C(=O)N(C)C)n1cc(NC(=O)c2cnn3cccnc23)c(-c2cc(Cl)ccc2OC(F)F)n1 (single isomer, unassigned) [Example 10]	16.6	
1.26	0.58	CC(C(=O)N(C)C)n1cc(NC(=O)c2cnn3cccnc23)c(-c2cc(Cl)ccc2OC(F)F)n1 (single isomer, unassigned) [Example 11]	41.8	
0.61	0.25	CN(C)C(=O)Cn1cc(NC(=O)c2cnn3cccnc23)c(-c2cc([C@@H]3C[C@H]3C#N)ccc2OC(F)F)n1 [Example 1, N-(3-(5-((1R,2R)-2-cyanocyclopropyl)-2-(difluoromethoxy)phenyl)-1-(2-(dimethylamino)-2-oxoethyl)-1H-pyrazol-4-yl)pyrazolo[1,5-a]pyrimidine-3-carboxamide]		9.9
0.17	0.25	CN(C)C(=O)Cn1cc(NC(=O)c2cnn3cccnc23)c(-c2cc(I)ccc2OC(F)F)n1 [Example 2, N-[3-[2-(difluoromethoxy)-5-iodophenyl]-1-[(dimethylcarbamoyl)methyl]-1H-pyrazol-4-yl]pyrazolo[1,5-a]pyrimidine-3-carboxamide]		6
0.77	0.34	CN(C)C(=O)Cn1cc(NC(=O)c2c(N)nn3cccnc23)c(-c2cc(Cl)ccc2OC(F)F)n1 [Example 3, 2-amino-N-(3-(5-chloro-2-(difluoromethoxy)phenyl)-1-(2-(dimethylamino)-2-oxoethyl)-1H-pyrazol-4-yl)pyrazolo[1,5-a]pyrimidine-3-carboxamide]		10.3
0.25	0.15	CN(C)C(=O)Cn1cc(NC(=O)c2cnn3cccnc23)c(-c2cc(C(F)F)ccc2OC(F)F)n1 [Example 6, N-(3-(2-(difluoromethoxy)-5-(difluoromethyl)phenyl)-1-(2(dimethylamino)-2-oxoethyl)-1H-pyrazol-4-yl)pyrazolo[1,5-a]pyrimidine-3-carboxamide]		9.9
1.15	0.52	CN(C)C(=O)Cn1cc(NC(=O)c2cnn3cccnc23)c(-c2cc(CC(F)F)ccc2OC(F)F)n1 [Example 7, N-(3-(5-(2,2-difluoroethyl)-2-(difluoromethoxy)phenyl)-1-(2-(dimethylamino)-2-oxoethyl)-1H-pyrazol-4-yl)pyrazolo[1,5-a]pyrimidine-3-carboxamide]		28.9
1.81	0.83	CN(C)C(=O)Cn1cc(NC(=O)c2cnn3cccnc23)c(-c2cc(Oc3ccc(C(=O)N(C)C)cc3)ccc2OC(F)F)n1 [Example 8, N-(3-(2-(difluoromethoxy)-5-(4-(dimethylcarbamoyl)phenoxy)phenyl)-1-(2-(dimethylamino)-2-oxoethyl)-1H-pyrazol-4-yl)pyrazolo[1,5-a]pyrimidine-3-carboxamide]		43.9
1.92	0.97	CN(C)C(=O)Cn1cc(NC(=O)c2cnn3cccnc23)c(-c2cc(CCF)ccc2OC(F)F)n1 [Example 9, N-(3-(2-(difluoromethoxy)-5-(2-fluoroethyl)phenyl)-1-(2-(dimethylamino)-2-oxoethyl)-1H-pyrazol-4-yl)pyrazolo[1,5-a]pyrimidine-3-carboxamide]		269
0.75	0.27	CN(C)C(=O)Cn1cc(NC(=O)c2cnn3cccnc23)c(-c2cc(Oc3ccc4c(c3)CNCC4)ccc2OC(F)F)n1 [Example 12, N-(3-(2-(difluoromethoxy)-5-((1,2,3,4-tetrahydroisoquinolin-7-yl)oxy)phenyl)-1-(2-(dimethylamino)-2-oxoethyl)-1H-pyrazol-4-yl)pyrazolo[1,5-a]pyrimidine-3-carboxamide]		29.8
1.17	0.51	C=Cc1ccc(OC(F)F)c(-c2nn(CC(=O)N(C)C)cc2NC(=O)c2cnn3cccnc23)c1 [Example 13, N-(3-(2-(difluoromethoxy)-5-vinylphenyl)-1-(2-(dimethylamino)-2-oxoethyl)-1H-pyrazol-4-yl)pyrazolo[1,5-a]pyrimidine-3-carboxamide]		24.1
1.99	0.8	CN(C)C(=O)Cn1cc(NC(=O)c2cnn3cccnc23)c(-c2cc(C3CC3)ccc2OC(F)F)n1 [Example 14, N-(3-(5-cyclopropyl-2-(difluoromethoxy)phenyl)-1-(2-(dimethylamino)-2-oxoethyl)-1H-pyrazol-4-yl)pyrazolo[1,5-a]pyrimidine-3-carboxamide]		47.3
0.43	0.32	CN(C)C(=O)Cn1cc(NC(=O)c2cnn3cccnc23)c(-c2cc(Br)ccc2OC(F)F)n1 [Example 15, N-(3-(5-bromo-2-(difluoromethoxy)phenyl)-1-(2-(dimethylamino)-2-oxoethyl)-1H-pyrazol-4-yl)pyrazolo[1,5-a]pyrimidine-3-carboxamide]		14.3
1.02	0.65	CN(C)C(=O)Cn1cc(NC(=O)c2cnn3cccnc23)c(-c2cc(Cl)ccc2OC(F)F)n1 [Example 16, N-(3-(5-chloro-2-(difluoromethoxy)phenyl)-1-(2-(dimethylamino)-2-oxoethyl)-1H-pyrazol-4-yl)pyrazolo[1,5-a]pyrimidine-3-carboxamide]		33.4
0.72	0.26	CN(C)C(=O)Cn1cc(NC(=O)c2cnn3cccnc23)c(-c2cc(OC(F)F)ccc2OC(F)F)n1 [Example 17, N-(3-(2,5-bis(difluoromethoxy)phenyl)-1-(2-(dimethylamino)-2-oxoethyl)-1H-pyrazol-4-yl)pyrazolo[1,5-a]pyrimidine-3-carboxamide]		14.1
1.56	3.18	CN1CC(O)(c2cccc(Oc3ccc(OC(F)F)c(-c4nn(CC(=O)N(C)C)cc4NC(=O)c4cnn5cccnc45)c3)c2)C1 [Example 18, N-(3-(2-(difluoromethoxy)-5-(3-(3-hydroxy-1-methylazetidin-3-yl)phenoxy)phenyl)-1-(2-(dimethylamino)-2-oxoethyl)-1H-pyrazol-4-yl)pyrazolo[1,5-a]pyrimidine-3-carboxamide]		285
